Measured values published in patent publication US4011138A, “Process for the preparation of cholesterol esterase” (Kyowa Hakko Kogyo Co., Ltd., priority 1974, dated 1977).

The compounds below were run on cholesterol esterase (assay: Inhibitory effects of various substances on the enzyme activity). Details: not given.
Type: biochemical, Pseudomonas fluorescens

SMILES | activity of the enzyme inhibited by heavy metal ions
[Cl][Hg][Cl] [HgCl2] | inhibited
O=[N+]([O-])[O-].[Ag+] [AgNO3] | inhibited
O=S(=O)([O-])[O-].[Cu+2] [CuSO4] | inhibited

Same assay, conditions: 0.1 ml of 4 mM solution of the substance added, kept at 37° C for 15 minutes; substrate cholesterol linoleate, 37° C for 10 minutes; ratio of residual to initial cholesterol linoleate

SMILES | Inhibition ratio (%)
c1cnc2c(c1)ccc1cccnc12 [o-Phenanthroline] | 0%
O=C(O)CN(CCN(CC(=O)O)CC(=O)O)CC(=O)O [Ethylenediaminetetraacetic acid] | 0%

Same assay, conditions: cholesterol esterase, 4000 µM

SMILES | Inhibition ratio (%)
O=S(=O)([O-])[O-].[Fe+2] [FeSO4] | 0%
[Cl][Mn][Cl] [MnCl2] | 0%
[Cl][Hg][Cl] [HgCl2] | 100%
O=C(O)c1cc[c]([Hg][Cl])cc1 [p-Chloromercuri benzoic acid (p-CMB), p-Chloromercuri benzoic acid] | 0%
c1ccc(-c2ccccn2)nc1 [2,2'-Dipyridyl] | 0%
O=[N+]([O-])[O-].[Ag+] [AgNO3] | 20%
O=S(=O)([O-])[O-].[Cu+2] [CuSO4] | 100%
[Ca+2].[Cl-].[Cl-] [CaCl2] | 0%
[Ba+2].[Cl-].[Cl-] [BaCl2] | 0%
[Cl-].[Cl-].[Zn+2] [ZnCl2] | 0%

Each compound was assayed on Pseudomonas fluorescens KY 3955 (FERM-P No. 2611) ATCC 31156 (assay: Cholesterol esterase activity of culture filtrates with fatty acids or fatty acid esters added to the fermentation medium). Details: additive at 5 g/l in soybean meal fermentation medium, 30° C for 24 hours; None = 20.
Type: cell-based

SMILES | Activity (cholesterol esterase activity of culture filtrate)
CCCCCCCC/C=C\CCCCCCCC(=O)O [oleic acid] | 170 unit/l
CCCCC/C=C\C/C=C\CCCCCCCC(=O)O [linoleic acid] | 310 unit/l
CCCCCCCC/C=C\CCCCCCCC(=O)OCC(COC(=O)CCCCCCC/C=C\CCCCCCCC)OC(=O)CCCCCCC/C=C\CCCCCCCC [triolein] | 200 unit/l
CCCCC/C=C\C/C=C\CCCCCCCC(=O)OCC(COC(=O)CCCCCCC/C=C\C/C=C\CCCCC)OC(=O)CCCCCCC/C=C\C/C=C\CCCCC [trilinolein] | 250 unit/l
CCCCCCCCCCCCCCCCCC(=O)O [stearic acid] | 230 unit/l

Each compound was assayed on cholesterol esterase (assay: Substrate specificity: relative activity of cholesterol esterase on cholesterol esters). Details: activity on cholesterol linoleate defined as 100; 37° C, 30 minutes, pH 7.5.
Type: biochemical, Pseudomonas fluorescens
Description: The determination of the enzyme activity on cholesterol linoleate is carried out by the following method.
A mixture having the following composition is prepared and shaken at 37° C for 30 minutes. […]
During the above-described operation, the substrate cholesterol linoleate is hydrolyzed by the action of cholesterol esterase into cholesterol and linoleic acid, and subsequently the formed cholesterol is oxidized to cholestenone by the action of cholesterol oxidase. After 30 minutes of shaking, the mixture is immediately subjected to the determination of residual unreacted cholesterol linoleate by Zurkowsky's method [Clinical Chemistry 10, 451 (1964)]. Then, the amount of the reacted cholesterol linoleate is calculated. The enzyme activity is expressed by "unit." A "unit" of enzyme activity is defined as that amount of enzyme which will decompose 1 μmole of cholesterol linoleate in 1 minute under the above-described conditions. The enzyme activities on other cholesterol esters are variable depending upon the kind of substrates and are determined in the similar manner.

SMILES | Relative activity
CCCCCCCCCCCCCCCC(=O)O[C@H]1CC[C@@]2(C)C(=CC[C@H]3[C@@H]4CC[C@H]([C@H](C)CCCC(C)C)[C@@]4(C)CC[C@@H]32)C1 [Cholesterol palmitate] | 26
CC(=O)O[C@H]1CC[C@@]2(C)C(=CC[C@H]3[C@@H]4CC[C@H]([C@H](C)CCCC(C)C)[C@@]4(C)CC[C@@H]32)C1 [Cholesterol acetate] | 80
CCCCCCCCCCCCCCCCCC(=O)O[C@H]1CC[C@@]2(C)C(=CC[C@H]3[C@@H]4CC[C@H]([C@H](C)CCCC(C)C)[C@@]4(C)CC[C@@H]32)C1 [Cholesterol stearate] | 58
CCCCCCCC/C=C\CCCCCCCC(=O)O[C@H]1CC[C@@]2(C)C(=CC[C@H]3[C@@H]4CC[C@H]([C@H](C)CCCC(C)C)[C@@]4(C)CC[C@@H]32)C1 [Cholesterol oleate] | 93
CCCCC/C=C\C/C=C\CCCCCCCC(=O)O[C@H]1CC[C@@]2(C)C(=CC[C@H]3[C@@H]4CC[C@H]([C@H](C)CCCC(C)C)[C@@]4(C)CC[C@@H]32)C1 [Cholesterol linoleate] | 100
